Here are results for 28 compounds from patent publication US20120329721A1, “MEANS FOR PREVENTING AND TREATING CELLULAR DEATH AND THEIR BIOLOGICAL APPLICATIONS” (CHIESI FARMACEUTICI S.P.A., priority 2003, published 2012).

Like-named read-outs stand apart in the source and are kept apart here. Starred links: 1 amine or outer side, 2 acyl side, 3 side chain; linkers in the order of their positions; H or OH if unused. Positions of bridges follow the written chain, without caps; N, C: chain ends. Non-standard residues stand in square brackets, D forms with d. Residues, ends and D or L forms follow the SMILES beside them. Chains are numbered I, II in the order given. *: point of attachment. Actinocin(9to1) = Cc1c2oc3c(C)ccc(C(=O)[*:1])c3nc-2c(C(=O)[*:2])c(N)c1=O; X1 = COC(=O)C[C@H](N*)C(=O)COc1c(F)cccc1F; Sta = CC(C)C[C@H](N)[C@@H](O)CC(=O)O; Quinaldoyl = O=C(c1ccc2ccccc2n1)*; NMeV = CN[C@H](C(=O)O)C(C)C; Isovaleryl = CC(C)CC(=O)*; Cbz = O=C(OCc1ccccc1)*; Sar = CNCC(=O)O; CH2F = FC*

The test system of assay [1] is primary cortical neurons. In kind it is cell-based.
The next assay concerns Jurkat cells. Nature of the assay: VP16-induced cell death of Jurkat cells, cytoprotection assay. In kind it is cell-based, human. To be noted: VP16 10 μM, 7-8 hrs; inhibitors 50 μM.
Assay [2] relates to primary cortical neurons. Briefly: Real-time FC and fixed-time FM detection of ΔΨm and PMP in neurons treated with neurotoxic molecules. In kind it is cell-based, mouse. To be noted: for ΔΨm and PMP state of non-trypsinized neurons (FM): FM co-detection JC-1/7-AAD, 45 minutes (mClCCP 100 μM, 30 min).
Assay [3] has as its target T1, human recombinant caspase-2 (Homo sapiens, UniProt P42575).
T1 construct: purchased BIOMOL
T1 sequence (P42575 170-325 limits assumed): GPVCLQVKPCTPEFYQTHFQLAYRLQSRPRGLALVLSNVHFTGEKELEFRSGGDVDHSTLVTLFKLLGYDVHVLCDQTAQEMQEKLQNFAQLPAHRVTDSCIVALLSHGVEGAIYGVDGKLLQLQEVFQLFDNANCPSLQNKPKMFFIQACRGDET
T1 sequence (P42575 348-452 limits assumed): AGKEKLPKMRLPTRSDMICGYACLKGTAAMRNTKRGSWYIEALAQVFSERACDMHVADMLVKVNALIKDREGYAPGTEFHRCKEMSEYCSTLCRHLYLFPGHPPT
Briefly: In vitro VDVAD-AMC cleavage by recombinant caspase-2. Type of assay: biochemical. To be noted: inhibitor 2 μM, 50 μM VDVAD-AMC, caspase-2 125 U, 30 min at 37° C.
Method: Activity of human recombinant caspase-2 (BIOMOL QuantiZyme™ Assay System) was assessed in 100 μl assay buffer (50 mM HEPES, pH 7.4, 100 mM NaCl, 0.1% CHAPS, 10 mM DTT, 1 mM EDTA, 10% glycerol).

The subject of assay [4] is neonatal ischemic brain injury in 7 day-old rats.
[5] abbreviates: SD model, compound added at the start of SD at the concentration of column '[ ], μM' (first concentration/target where two are printed).

Regarding `Cn1cnc(N)c2ncnc1-2` [3-Methyladenine], the Survival result with primary cortical neurons [1] (setting [5]) was “No”.

With `CC[C@H](CO)Nc1nc(NCc2ccccc2)c2ncn(C(C)C)c2n1` [Roscovitine], in the assay on primary cortical neurons [1], the Survival result is listed as “No”.

Turning to `O=S(=O)([O-])c1cc(N=C=S)ccc1C=Cc1ccc(N=C=S)cc1S(=O)(=O)[O-].[Na+].[Na+]` [DIDS, 4,4′-Diisothiocyanastilbene-2,2′-disulfonic acid disodium salt], the Survival result in the assay with primary cortical neurons [1] (setting [5]) is “No”.

Consider `CO/C1=C\C(C)=C\[C@@H](C)[C@@H](O)[C@@H](C)C/C(C)=C/C=C/[C@H](OC)[C@@H]([C@@H](C)[C@@H](O)[C@H](C)[C@@]2(O)C[C@@H](O)[C@H](C)[C@@H](C(C)C)O2)OC1=O` [Bafilomycin A1], for which the Survival entry in the assay with primary cortical neurons [1] (setting [5]) is listed as “No”.

For the compound `CCCCCCCCCCC1=C(C)C(=O)C(OC)=C(OC)C1=O` [Decyl-Ubiquinone], the Survival entry in the assay on primary cortical neurons [1] (setting [5]) is recorded as “No”.

`Cc1c2oc3c(C)ccc(C(=O)N[C@@H]4C(=O)N[C@H](C(C)C)C(=O)N5CCC[C@H]5C(=O)N(C)CC(=O)N(C)[C@@H](C(C)C)C(=O)O[C@@H]4C)c3nc-2c(C(=O)N[C@@H]2C(=O)N[C@H](C(C)C)C(=O)N3CCC[C@H]3C(=O)N(C)CC(=O)N(C)[C@@H](C(C)C)C(=O)O[C@@H]2C)c(N)c1=O` [Actinomycin D] (I: T[dV]P[Sar][NMeV] / II: T[dV]P[Sar][NMeV]; ester I:1-I:C, II:1-II:C; linker I:N-II:N via Actinocin(9to1)): the “survival / protection of SD-neurons against cell death (apoptosis hallmarks overall)” value (“survival / protection of SD-neurons” for short) in the assay with primary cortical neurons [1] is on record as “promote survival”. Moreover, in the assay on primary cortical neurons [1] (setting [5]), the Survival entry was “Yes”. Besides, in the assay on Jurkat cells, the “terminal nuclear alterations and PMP in VP16-treated Jurkat cells” value was “prevent neither ΔΨm loss nor PMP”; the “ΔΨm loss in VP16-treated Jurkat cells” value is given as “prevent neither ΔΨm loss nor PMP”.

With `N[C@@H](CCC(=O)N[C@@H](CS)C(=O)NCC(=O)O)C(=O)O` [glutathion], the Survival result with primary cortical neurons [1] (setting [5]) is “No”.

For `C[C@@H]1C[C@@H]([C@H](O)CC2CC(=O)NC(=O)C2)C(=O)[C@@H](C)C1` [Cycloheximide], in the assay on primary cortical neurons [1], the “survival / protection of SD-neurons” value was “promote survival”. In addition, in the assay on primary cortical neurons [1] (setting [5]), the Survival result is listed as “Yes”. Besides, in the assay with Jurkat cells, the “terminal nuclear alterations and PMP in VP16-treated Jurkat cells” value is “prevent neither ΔΨm loss nor PMP”; the “ΔΨm loss in VP16-treated Jurkat cells” value was “prevent neither ΔΨm loss nor PMP”.

Regarding `O=C(NC(Cc1ccccc1)C(=O)NC(Cc1ccccc1)C(=O)CF)OCc1ccccc1` (stereo not drawn) [z-FF-fmk, N-benzyloxycarbonyl-Phe-Phe-fluoromethylketone] (Cbz-Phe-Phe-CH2F; configuration not given here), in the assay on primary cortical neurons [1] (setting [5]), the Survival result is recorded as “No”.

On to `O=c1c(-c2ccc(O)cc2)coc2cc(O)cc(O)c12` [Genistein], for which the Survival result in the assay with primary cortical neurons [1] is listed as “No”.

Regarding `CCO` [ethanol], in the assay with primary cortical neurons [2], the “ΔΨm and PMP state of non-trypsinized neurons (FM)” value was “induces a rapid PMP”. Besides, in the assay on primary cortical neurons [2] (real-time FC, after 5 minutes), the PMP came to 98% and the ΔΨm loss is reported as 75%.

Regarding `CC(=O)OCOC(=O)CN(CC(=O)OCOC(C)=O)c1ccccc1OCCOc1ccccc1N(CC(=O)OCOC(C)=O)CC(=O)OCOC(C)=O` [BAPTA-AM, acetoxymethyl ester of 1,2-bis(2-aminophenoxy)ethane-N,N,N′,N′-tetraacetic acid], the Survival entry with primary cortical neurons [1] is recorded as “No”.

For the compound `Cc1c(C)c2c(c(C)c1O)CCC(C)(C(=O)O)O2` (stereo not drawn) [Trolox ®], the Survival entry in the assay with primary cortical neurons [1] (setting [5]) is “No”.

As for Ruthenium Red, the Survival result in the assay with primary cortical neurons [1] (setting [5]) is listed as “No”.

As to `CC(C)CC(=O)N[C@H](C(=O)N[C@H](C(=O)N[C@@H](CC(C)C)[C@@H](O)CC(=O)N[C@@H](C)C(=O)N[C@@H](CC(C)C)[C@@H](O)CC(=O)O)C(C)C)C(C)C` [Pepstatin] (Isovaleryl-VV[Sta]A[Sta]-OH), the Survival entry in the assay on primary cortical neurons [1] (setting [5]) is on record as “No”.

Regarding `COC(=O)C[C@H](NC(=O)[C@H](C)NC(=O)[C@@H](NC(=O)[C@H](CC(=O)OC)NC(=O)[C@@H](NC(=O)c1ccc2ccccc2n1)C(C)C)C(C)C)C(=O)COc1c(F)cccc1F` [Q-VDVAD-OPH, Quinolinylcarnonyl-L-Valinyl-L-Aspartyl (methyl ester)-X-Vanilyl-L-Alaninyl-L-Aspartyl (methyl ester) 2,6-difluorophenyl ester] (Quinaldoyl-VD(OMe)VA-X1), the “survival / protection of SD-neurons” value with primary cortical neurons [1] is “promotes survival of cortical neurons”. In addition, the “inhibition of VDVAD-AMC cleavage by recombinant caspase-2” value in assay [3] is given as “blocked”. Further, the “infarct volume (% damage in the lesioned ipsilateral hemisphere)” value in assay [4] (single i.p. dose before ischemia, 48 hours, mean ±SEM) was found to be 5.7±2.3%. Moreover, the “reduction in infarct volume” value in assay [4] (single i.p. dose before the ischemic onset, 48 hours after ischemia, vs ischemic control) is given as 74%. Moreover, in assay [4] (single i.p. dose, 48 hours), the “animals (of the 12 studied) with a very marked smaller infarct” value came out at 8, the “mean infarct of the four other animals” value is listed as 16.5±1.32% and the “median infarct of the 8 animals with a very marked smaller infarct” value came out at 0.5%. The “animals that exhibited no infarct” value in assay [4] (single i.p. dose, 48 hrs after ischemia) was 8.

On to “N-benzyloxycarbonyl-Phe-Ala-fluoromethylketone [z-FA-fmk]”, for which the Survival entry in the assay with primary cortical neurons [1] (setting [5]) was “No”.

`Oc1ccc(-c2nc(-c3ccncc3)c(-c3ccc(F)cc3)[nH]2)cc1` [SB 202190]: the Survival result in the assay with primary cortical neurons [1] (setting [5]) was “No”.

`N#CC(C#N)=NNc1cccc(Cl)c1` [mClCCP, carbonyl cyanide m-chlorophenylhydrazone]: in the assay on primary cortical neurons [2], the “ΔΨm and PMP state of non-trypsinized neurons (FM)” value is on record as “induces ΔΨm disruption”. For the same compound, in the assay on primary cortical neurons [2] (real-time FC, 100 μM), the “time of treatment at which ΔΨm loss of neuronal population is maximal” value is 2 min.

As for `CC(=O)N[C@@H](CS)C(=O)O` [N-Acetyl-Cystein], in the assay with primary cortical neurons [1] (setting [5]), the Survival result was “No”.

With `COc1cccc(-c2cc(=O)c3ccccc3o2)c1N` [PD 98059], in the assay with primary cortical neurons [1] (setting [5]), the Survival result was “No”.

Turning to `CC(=O)N[C@H](C(=O)N[C@@H](CC(=O)O)C(=O)N[C@H](C(=O)N[C@@H](C)C(=O)N[C@H](C=O)CC(=O)O)C(C)C)C(C)C` [Ac-VDVAD-Cho] (Ac-VDVAD-aldehyde), the “inhibition of VDVAD-AMC cleavage by recombinant caspase-2” value in assay [3] is listed as “blocked”.

For the compound `C=C1[C@@H](O)[C@@H]2O[C@]3(CC[C@H](/C=C/[C@@H](C)[C@@H]4CC(C)=C[C@@]5(O[C@H](C[C@@](C)(O)C(=O)O)CC[C@H]5O)O4)O3)CC[C@H]2O[C@@H]1[C@@H](O)C[C@H](C)[C@H]1O[C@@]2(CCCCO2)CC[C@H]1C` [Okadaic acid], in the assay with primary cortical neurons [1] (setting [5]), the Survival entry is recorded as “No”.

Consider `CN1CC=C(c2ccccc2)CC1` [MPTP, 1-methyl-4-phenyl-1,2,3,6-tetrahydropyridine], for which, in the assay with primary cortical neurons [2], the “ΔΨm and PMP state of non-trypsinized neurons (FM)” value is listed as “most neurons are ΔΨm low without any sign of PMP”. For the same compound, the ΔΨm low neurons with primary cortical neurons [2] (real-time FC, after 15 minutes of treatment) amounted to 49.6%.

On to `CC(C)[C@H](CO)Nc1nc(Nc2cc(N)cc(Cl)c2)c2ncn(C(C)C)c2n1` [Aminopurvalanol], for which, in the assay on primary cortical neurons [1] (setting [5]), the Survival entry is “No”.

`CC1CNCCN1S(=O)(=O)c1cccc2cnccc12` (stereo not drawn) [H-7]: the Survival result in the assay on primary cortical neurons [1] (setting [5]) is “No”.

In the case of `CCC(=C/[C@H](C)C/C=C/C(C)=C/[C@@H](C)C(=O)[C@@H](C)[C@H](O)[C@@H](C)C/C(C)=C/C(=O)O)/C=C/[C@@H]1OC(=O)C=C[C@@H]1C` [Leptomycin B], the Survival result in the assay on primary cortical neurons [1] (setting [5]) was “No”.

In the case of `CC(=O)Oc1ccccc1C(=O)O` [Aspirin], the Survival result with primary cortical neurons [1] (setting [5]) was “No”.
